Source: US5075288A, “Somnogenic fragment of interleukin-1β” (The University of Tennessee Research Corporation, priority 1990, dated 1991)
Entries after “also recorded” stand apart in the source; their conditions may differ. Residues, ends and D or L forms follow the SMILES beside them.

Key:
[1] = test system: male, New Zealand white pasteurella-free rabbits; assay: Rabbit sleep (EEG) and body temperature after ICV injection; type: in vivo; conditions: for Colonic Temperature Start: at the time of injection; for Colonic Temperature End: end of 6-h recording session; for NREMS / REMS: six-hour recording period
From the text: A lateral cerebral ventricular guide cannula, a thermistor, and stainless steel screw electroencephalographic (EEG) electrodes were surgically implanted into male, New Zealand white pasteurella-free rabbits (about 3.5 kg). EEG electrodes were placed over the frontal and parietal cortices A 50,000 ohm calibrated thermistor (Model 4018, Omega Engineering, Stamford, Conn.) was implanted over the parietal cortex to measure brain temperature (Tbr). Insulated leads from the screws and the thermistor were routed to an amphenol plug attached to the skull with dental acrylic (DUZ-ALL, Coralite Dental Products, Skokie, Ill.). The guide cannula was placed in the left lateral cerebral ventricle. A minimum of two weeks was allowed for recovery before the animals were habituated to the recording chambers (Hotpack 352600, Philadelphia, Pa.). Food and water were available ad libitum. Each recording chamber contained an electronic swivel (Stoelting, Chicago, Ill.) suspended by a shock-absorbing system. A flexible tether connected the swivel to the Amphenol connector on the rabbit's head, thus allowing freedom of movement. An accelerometer (Grass, SPAI, Quincy, Mass.) attached to the shock-absorbing system provided an indication of body movement. The cables from the swivel and the accelerometer were connected to Grass 7D polygraphs in an adjacent room. The polygraphs recorded EEG, Tbr, and body movement for each animal. The EEG for each rabbit was passed through band-pass filters with the 0.5-3.5 Hz (delta), 4.0-7.5 Hz (theta), 8.0-12.5 Hz (alpha), and 13.0-15.0 Hz (beta) frequency bands rectified and averaged for 1-min intervals by a Buxco model 24/32 data logger (Buxco Electronics, Sharon, Conn.). These values for 1-min periods were used to compute hourly averages. EEG amplitudes in the delta frequency band during 1-min epochs of NREMS for each of the six postinjection hours were also determined. The 10 samples of greatest magnitude in each hour were averaged for each rabbit during control and test NREM sleep periods. […] Tbr S were also recorded using a data logger (Acrosystems 400, Beverly, Mass.), with values for each rabbit sampled at 10-min intervals. NREM sleep and REM sleep were measured as a percent of time over a six-hour recording period. Colonic temperatures (Tco) were taken with a flexible thermistor (YSI, Inc., Yellow Springs, Ohio) at the time of injection and at the end of 6-h recording session. IL1 fragments were dissolved in appropriate volumes of artificial cerebrospinal fluid (aCSF) (2 mM KC1, 1.15 mM CaCl2, and 0.96 mM MgCl2 in pyrogen free saline, […] NaCl [Abbott, N. Chicago, Ill.] Hu-rIL1β was supplied in phosphate-buffered saline (PBS) (0.4 mg/ml). All substances were injected into a lateral cerebral ventricle (ICV). Injection volumes were 12-25 μl per rabbit; each injection lasted about 2 min. Animals were injected between 0900 and 1000 h. Control recordings were obtained from each animal after injection of vehicle (aCSF). After injections, animals were recorded from the next 6 h. Data from all experiments were analyzed with the SPSS^x Information System. Friedman's test for k-related samples was used to test for differences across the 6-h recording periods. If significant differences were indicated, the Wilcoxon matched-pairs signed-ranks test was used to identify the specific hours in which the differences occurred. An alpha level of P<0.05 was accepted as indicating significance.

Murine D10 Cells = assay: T cell proliferation assay, [3H] thymidine incorporation in murine T cell line D10; type: cell-based, mouse
Method: Thymus glands were removed from 6-10 week old CD1 mice after mice had been sacrificed by cervical dislocation. Thymocytes were isolated by gently homogenizing the thymus glands in a dounce homogenizer. Thymocytes were suspended in RPMI 1640 containing 7.5% FCS and 5×10-^6 M 2-mercaptoethanol. Aliquots of the cell suspension (100 μl) were dispensed into wells of flat bottom microtiter plates (Linbro Plastics), and samples (50 μl) suspended in RPMI 1640 were added to appropriate wells. Plates were incubated at 37° C., 5% CO2, in a humidified atmosphere for 60 h, and wells were pulsed with [^3 H] thymidine (1 μCi, […]) for 12h. After the 12-h pulse, cells were harvested onto paper filter pads with a multiple-sample harvester, and thymocyte proliferation was determined by scintillation counting. In some experiments, the murine T cell line D10 was used instead of thymocytes as target cells using phytohemmagglutinin (1 μg/ml) as costimulant.

Molecule: 199-228: synthetic fragment of IL1β, amino acids 199-228 (ESVDPKNYPKKKMEKRFVFNKIEINNKLEF; UniProt P01584 199-228, looked up, fragment) [Peptide 199-228]
- Colonic Temperature Start ([1]; 25 μg ICV): 39.3 (0.1) °C
- Colonic Temperature End ([1]; 25 μg ICV): 39.4 (0.1) °C
- NREMS ([1]; 25 μg ICV): 50.9 (3.9) percent of time
- REMS ([1]; 25 μg ICV): 20.0 (1.2) percent of time
- somnogenic and pyrogenic activity: effect on sleep or Tbr (in words) ([1]; ICV, doses of Table 3): failed to alter sleep or Tbr
- T cell proliferation (in words) (Murine D10 Cells; murine D10 cells (Table 2)): stimulated T cell proliferation
- [3H] Thymidine Incorporation, Murine D10 Cells (Murine D10 Cells; standard deviation in, phytohemmagglutinin 1 μg/ml as costimulant): 2799 (652) counts per minute

Molecule: CC[C@H](C)[C@H](NC(=O)[C@H](CCC(=O)O)NC(=O)[C@@H](NC(=O)[C@H](CCCCN)NC(=O)[C@H](CC(N)=O)NC(=O)[C@H](Cc1ccccc1)NC(=O)[C@@H](NC(=O)[C@H](Cc1ccccc1)NC(=O)[C@H](CCCNC(=N)N)NC(=O)[C@H](CCCCN)NC(=O)[C@H](CCC(=O)O)NC(=O)[C@H](CCSC)NC(=O)[C@H](CCCCN)NC(=O)[C@H](CCCCN)NC(=O)[C@@H](N)CCCCN)C(C)C)[C@@H](C)CC)C(=O)N[C@@H](CC(N)=O)C(=O)N[C@@H](CC(N)=O)C(=O)N[C@@H](CCCCN)C(=O)N[C@@H](CC(C)C)C(=O)N[C@@H](CCC(=O)O)C(=O)N[C@@H](Cc1ccccc1)C(=O)N[C@@H](CCC(=O)O)C(=O)N[C@@H](CO)C(=O)N[C@@H](C)C(=O)N[C@@H](CCC(N)=O)C(=O)N[C@@H](Cc1ccccc1)C(=O)N1CCC[C@H]1C(=O)N[C@@H](CC(N)=O)C(=O)N[C@@H](Cc1c[nH]c2ccccc12)C(=O)N[C@@H](Cc1ccc(O)cc1)C(=O)N[C@H](C(=O)N[C@@H](CO)C(=O)N[C@H](C(=O)O)[C@@H](C)O)[C@@H](C)CC [Peptide 208-240] (H-KKKMEKRFVFNKIEINNKLEFESAQFPNWYIST-OH)
- abnormal behavior after injection ([1]; 25 μg ICV): no appearance of abnormal behavior; also recorded: did not appear to induce abnormal behavior

Molecule: IL1β: Recombinant human IL1β prepared by Cistron Biotechnology, Incorporated
- Colonic Temperature Start ([1]; 5 ng ICV): 39.2 (0.0) °C
- Colonic Temperature End ([1]; 5 ng ICV): 40.0 (0.1) °C
- NREMS ([1]; 5 ng ICV): 53.3 (3.2) percent of time
- REMS ([1]; 5 ng ICV): 4.4 (0.8) percent of time
- Colonic Temperature Start ([1]; 20 ng ICV): 39.3 (0.1) °C
- Colonic Temperature End ([1]; 20 ng ICV): 41.0 (0.3) °C
- NREMS ([1]; 20 ng ICV): 61.5 (4.3) percent of time
- REMS ([1]; 20 ng ICV): 2.1 (0.6) percent of time
